Experimental data as given in article doi:10.1101/2024.08.19.608619, “Discovery of potent SARS-CoV-2 nsp3 macrodomain inhibitors uncovers lack of translation to cellular antiviral response” (bioRxiv, 2024).
Values joined by “and” are separate entries in the source; they are usually repeats but may differ in a detail not shown here. Equal entries are not always repeated.

Test system: not listed separately
Assay: Hepatic microsomal stability, HLM
Assay type: in vitro ADME, human
Details: In vitro human liver microsomal stability

SMILES	clint [µL/min/mg]	perc_remaining [%]	t_half [min]
C[C@H](C(=O)O)[C@@H](NC(=O)c1ncnc2[nH]ccc12)c1ccc(Br)cc1 [ASAP-0014722]	3.0	92.211	573.861

Same assay, conditions: In vitro human liver microsomal stability; no cofactor

SMILES	perc_remaining_no_cofactor [%]
C[C@H](C(=O)O)[C@@H](NC(=O)c1ncnc2[nH]ccc12)c1ccc(Br)cc1 [ASAP-0014722]	101.611

Test system: not listed separately
Assay: In vitro rat hepatocyte stability
Assay type: in vitro ADME
Details: not given
Description: Supplement media-1.zip/Hepatocyte_Stability.csv, table | column: clint; t_half

SMILES	clint [uL/min/1E6 cells]	t_half [min]
C[C@H](C(=O)O)[C@@H](NC(=O)c1ncnc2[nH]ccc12)c1ccc(Br)cc1 [ASAP-0014722]	< 3.0	> 231.0

Test system: CYP
Assay: CYP inhibition
Assay type: in vitro ADME
Details: isoform 1A2; In vitro CYP inhibition pooled
Description: Supplement media-1.zip/CYP_Inhibition.csv, table | column: ic50; potency

SMILES	IC50 [µM]
C[C@H](C(=O)O)[C@@H](NC(=O)c1ncnc2[nH]ccc12)c1ccc(Br)cc1 [ASAP-0014722]	> 50

Same assay, conditions: isoform 1A2; In vitro CYP inhibition pooled; potency class in words

SMILES	potency
C[C@H](C(=O)O)[C@@H](NC(=O)c1ncnc2[nH]ccc12)c1ccc(Br)cc1 [ASAP-0014722]	weak

Same assay, conditions: isoform 2C9; In vitro CYP inhibition pooled

SMILES	IC50 [µM]
C[C@H](C(=O)O)[C@@H](NC(=O)c1ncnc2[nH]ccc12)c1ccc(Br)cc1 [ASAP-0014722]	5.14

Same assay, conditions: isoform 2C9; In vitro CYP inhibition pooled; potency class in words

SMILES	potency
C[C@H](C(=O)O)[C@@H](NC(=O)c1ncnc2[nH]ccc12)c1ccc(Br)cc1 [ASAP-0014722]	moderate

Same assay, conditions: isoform 2C19; In vitro CYP inhibition pooled

SMILES	IC50 [µM]
C[C@H](C(=O)O)[C@@H](NC(=O)c1ncnc2[nH]ccc12)c1ccc(Br)cc1 [ASAP-0014722]	> 50

Same assay, conditions: isoform 2C19; In vitro CYP inhibition pooled; potency class in words

SMILES	potency
C[C@H](C(=O)O)[C@@H](NC(=O)c1ncnc2[nH]ccc12)c1ccc(Br)cc1 [ASAP-0014722]	weak

Same assay, conditions: isoform 2D6; In vitro CYP inhibition pooled

SMILES	IC50 [µM]
C[C@H](C(=O)O)[C@@H](NC(=O)c1ncnc2[nH]ccc12)c1ccc(Br)cc1 [ASAP-0014722]	> 50

Same assay, conditions: isoform 2D6; In vitro CYP inhibition pooled; potency class in words

SMILES	potency
C[C@H](C(=O)O)[C@@H](NC(=O)c1ncnc2[nH]ccc12)c1ccc(Br)cc1 [ASAP-0014722]	weak

Same assay, conditions: isoform 3A4; In vitro CYP inhibition pooled

SMILES	IC50 [µM]
C[C@H](C(=O)O)[C@@H](NC(=O)c1ncnc2[nH]ccc12)c1ccc(Br)cc1 [ASAP-0014722]	> 50

Same assay, conditions: isoform 3A4; In vitro CYP inhibition pooled; potency class in words

SMILES	potency
C[C@H](C(=O)O)[C@@H](NC(=O)c1ncnc2[nH]ccc12)c1ccc(Br)cc1 [ASAP-0014722]	weak

Target: T1, alpha2A (h) (Homo sapiens, UniProt P08913)
T1 construct: purchased Eurofins Cerep (SafetyScreen44), recognised from the panel format
T1 sequence (P08913 1-465): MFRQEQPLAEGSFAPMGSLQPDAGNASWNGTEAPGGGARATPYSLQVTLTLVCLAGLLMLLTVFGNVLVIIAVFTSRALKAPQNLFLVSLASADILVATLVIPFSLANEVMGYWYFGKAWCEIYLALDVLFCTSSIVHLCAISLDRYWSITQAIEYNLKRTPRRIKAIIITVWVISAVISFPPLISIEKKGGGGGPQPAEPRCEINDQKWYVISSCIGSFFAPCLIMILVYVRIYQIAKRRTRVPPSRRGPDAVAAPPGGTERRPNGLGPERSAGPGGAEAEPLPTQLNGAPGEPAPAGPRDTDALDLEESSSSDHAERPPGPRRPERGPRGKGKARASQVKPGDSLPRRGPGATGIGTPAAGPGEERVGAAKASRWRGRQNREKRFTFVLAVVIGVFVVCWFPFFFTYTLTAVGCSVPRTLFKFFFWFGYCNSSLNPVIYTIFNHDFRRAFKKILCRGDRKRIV
Assay: In vitro CEREP profiling, alpha2A (h) (antagonist radioligand)
Assay type: binding
Details: test compound 10 uM
Description: (§1) Supplement media-1.zip/Safety_Panel_Profile.csv, table | column: perc_inhibition

SMILES	perc_inhibition (% inhibition of the binding of a ligand specific for each target) [%]
C[C@H](C(=O)O)[C@@H](NC(=O)c1ncnc2[nH]ccc12)c1ccc(Br)cc1 [ASAP-0014722]	3

Target: T2, COX2(h) (Homo sapiens, UniProt P35354)
T2 construct: purchased Eurofins Cerep (SafetyScreen44), recognised from the panel format
T2 sequence (P35354 18-604): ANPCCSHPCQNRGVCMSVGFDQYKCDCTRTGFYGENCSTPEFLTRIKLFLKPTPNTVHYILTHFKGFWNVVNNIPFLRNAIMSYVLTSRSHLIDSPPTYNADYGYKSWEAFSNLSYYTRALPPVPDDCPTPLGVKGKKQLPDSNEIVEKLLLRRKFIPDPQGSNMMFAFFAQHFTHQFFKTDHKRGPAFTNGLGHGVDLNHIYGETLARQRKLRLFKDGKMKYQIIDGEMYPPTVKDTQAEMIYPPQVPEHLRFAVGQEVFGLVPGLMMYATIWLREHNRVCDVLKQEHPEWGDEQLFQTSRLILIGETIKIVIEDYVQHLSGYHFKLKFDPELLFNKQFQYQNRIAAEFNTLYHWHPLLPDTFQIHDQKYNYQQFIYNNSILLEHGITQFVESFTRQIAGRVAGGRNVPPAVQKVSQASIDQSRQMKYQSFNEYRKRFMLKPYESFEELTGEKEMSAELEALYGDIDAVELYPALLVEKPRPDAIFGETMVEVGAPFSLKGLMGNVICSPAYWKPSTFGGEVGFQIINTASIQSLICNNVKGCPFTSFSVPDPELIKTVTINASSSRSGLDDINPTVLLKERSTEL
Assay: In vitro CEREP profiling, COX2(h)
Assay type: biochemical
Details: test compound concentration 10 uM; Enzyme and Cell-based assays
Description: as §1

SMILES	perc_inhibition: % inhibition of control enzyme activity, COX2(h) [%]
C[C@H](C(=O)O)[C@@H](NC(=O)c1ncnc2[nH]ccc12)c1ccc(Br)cc1 [ASAP-0014722]	7

Test system: Vero E6/TMPRSS2
Assay: Vero E6/TMPRSS2 cytotoxicity with P-gp inhibitor
Assay type: cell-based
Details: not given
Description: Supplement media-1.zip/Cytotoxicity.csv, table | column: cc10; cc50; perc_min_measured; perc_max_measured

SMILES	CC50 [µM]	cc10 [µM]
C[C@H](C(=O)O)[C@@H](NC(=O)c1ncnc2[nH]ccc12)c1ccc(Br)cc1 [ASAP-0014722]	> 5	> 5.0

Same assay, conditions: highest measured response of the dose series

SMILES	perc_max_measured [%]
C[C@H](C(=O)O)[C@@H](NC(=O)c1ncnc2[nH]ccc12)c1ccc(Br)cc1 [ASAP-0014722]	112.113

Same assay, conditions: lowest measured response of the dose series

SMILES	perc_min_measured [%]
C[C@H](C(=O)O)[C@@H](NC(=O)c1ncnc2[nH]ccc12)c1ccc(Br)cc1 [ASAP-0014722]	82.421

Target: T3, beta1 (h) (Homo sapiens, UniProt P08588)
T3 construct: purchased Eurofins Cerep (SafetyScreen44), recognised from the panel format
Assay: In vitro CEREP profiling, beta1 (h) (agonist radioligand)
Assay type: binding
Details: test compound 10 uM
Description: as §1

T3 sequence (P08588 whole entry): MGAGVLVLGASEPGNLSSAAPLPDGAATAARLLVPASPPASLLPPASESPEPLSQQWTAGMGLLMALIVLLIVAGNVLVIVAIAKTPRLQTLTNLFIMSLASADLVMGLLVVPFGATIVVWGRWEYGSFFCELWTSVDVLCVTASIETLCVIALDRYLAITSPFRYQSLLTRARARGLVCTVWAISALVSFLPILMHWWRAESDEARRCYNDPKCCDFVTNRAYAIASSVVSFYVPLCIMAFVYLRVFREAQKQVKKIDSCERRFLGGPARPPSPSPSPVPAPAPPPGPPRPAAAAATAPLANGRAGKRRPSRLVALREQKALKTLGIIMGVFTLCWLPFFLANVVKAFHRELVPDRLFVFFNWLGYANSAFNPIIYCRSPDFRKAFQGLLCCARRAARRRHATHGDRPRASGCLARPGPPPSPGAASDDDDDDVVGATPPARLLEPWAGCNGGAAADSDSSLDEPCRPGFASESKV

SMILES	perc_inhibition (% inhibition of the binding of a ligand specific for each target) [%]
C[C@H](C(=O)O)[C@@H](NC(=O)c1ncnc2[nH]ccc12)c1ccc(Br)cc1 [ASAP-0014722]	-5

Target: T4, PDE3A (h) (Homo sapiens, UniProt Q14432)
T4 construct: purchased Eurofins Cerep (SafetyScreen44), recognised from the panel format
Assay: In vitro CEREP profiling, PDE3A (h)
Assay type: biochemical
Details: test compound concentration 10 uM; Enzyme and Cell-based assays
Description: as §1

T4 sequence (Q14432 whole entry): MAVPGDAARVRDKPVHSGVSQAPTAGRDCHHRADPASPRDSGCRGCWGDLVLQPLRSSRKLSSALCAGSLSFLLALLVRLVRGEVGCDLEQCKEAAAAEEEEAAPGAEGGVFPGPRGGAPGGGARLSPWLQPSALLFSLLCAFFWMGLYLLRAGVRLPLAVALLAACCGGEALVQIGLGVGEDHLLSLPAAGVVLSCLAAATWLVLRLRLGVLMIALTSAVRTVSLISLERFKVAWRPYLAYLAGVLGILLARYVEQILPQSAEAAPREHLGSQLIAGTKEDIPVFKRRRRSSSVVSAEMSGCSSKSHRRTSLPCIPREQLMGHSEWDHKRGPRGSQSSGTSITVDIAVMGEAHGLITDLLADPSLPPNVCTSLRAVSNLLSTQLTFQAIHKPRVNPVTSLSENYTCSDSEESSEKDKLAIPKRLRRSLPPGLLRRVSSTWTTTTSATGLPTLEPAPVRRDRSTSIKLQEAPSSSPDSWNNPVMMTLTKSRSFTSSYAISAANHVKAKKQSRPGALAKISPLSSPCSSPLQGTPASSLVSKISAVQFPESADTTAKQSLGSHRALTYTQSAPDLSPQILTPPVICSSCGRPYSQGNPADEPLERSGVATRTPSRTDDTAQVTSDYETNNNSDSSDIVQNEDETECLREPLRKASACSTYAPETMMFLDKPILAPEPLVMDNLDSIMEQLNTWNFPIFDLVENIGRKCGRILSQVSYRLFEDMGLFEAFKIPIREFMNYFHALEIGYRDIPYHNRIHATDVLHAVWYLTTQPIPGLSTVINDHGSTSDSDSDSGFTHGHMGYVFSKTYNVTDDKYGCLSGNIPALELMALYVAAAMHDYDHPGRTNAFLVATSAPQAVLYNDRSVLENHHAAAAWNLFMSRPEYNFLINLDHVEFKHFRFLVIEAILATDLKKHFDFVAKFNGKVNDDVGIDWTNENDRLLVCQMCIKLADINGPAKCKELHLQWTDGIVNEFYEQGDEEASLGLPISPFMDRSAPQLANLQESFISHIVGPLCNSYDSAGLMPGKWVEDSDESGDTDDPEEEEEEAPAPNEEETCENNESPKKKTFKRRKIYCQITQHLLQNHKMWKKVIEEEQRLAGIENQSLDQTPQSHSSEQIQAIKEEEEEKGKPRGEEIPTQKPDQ

SMILES	perc_inhibition: % inhibition of control enzyme activity, PDE3A (h) [%]
C[C@H](C(=O)O)[C@@H](NC(=O)c1ncnc2[nH]ccc12)c1ccc(Br)cc1 [ASAP-0014722]	52

Target: T5, PDE4D2 (h) (Homo sapiens, UniProt Q08499)
T5 construct: purchased Eurofins Cerep (SafetyScreen44), recognised from the panel format
Assay: In vitro CEREP profiling, PDE4D2 (h)
Assay type: biochemical
Details: test compound concentration 10 uM; Enzyme and Cell-based assays
Description: as §1

T5 sequence (Q08499 303-809): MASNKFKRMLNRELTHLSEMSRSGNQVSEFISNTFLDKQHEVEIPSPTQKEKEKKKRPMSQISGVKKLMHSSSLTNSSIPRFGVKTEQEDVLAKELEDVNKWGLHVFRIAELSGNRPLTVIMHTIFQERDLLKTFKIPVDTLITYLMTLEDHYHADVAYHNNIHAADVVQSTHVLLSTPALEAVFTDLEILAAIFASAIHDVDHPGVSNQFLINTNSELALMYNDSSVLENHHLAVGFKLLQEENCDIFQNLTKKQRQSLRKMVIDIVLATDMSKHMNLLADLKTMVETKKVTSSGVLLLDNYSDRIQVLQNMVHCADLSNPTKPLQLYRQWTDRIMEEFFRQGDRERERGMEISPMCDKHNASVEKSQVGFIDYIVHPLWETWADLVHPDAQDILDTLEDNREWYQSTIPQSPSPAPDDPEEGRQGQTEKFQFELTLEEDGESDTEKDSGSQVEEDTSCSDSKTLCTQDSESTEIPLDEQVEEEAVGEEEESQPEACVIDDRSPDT

SMILES	perc_inhibition: % inhibition of control enzyme activity, PDE4D2 (h) [%]
C[C@H](C(=O)O)[C@@H](NC(=O)c1ncnc2[nH]ccc12)c1ccc(Br)cc1 [ASAP-0014722]	30

Target: T6, Lck kinase (h) (Homo sapiens, UniProt P06239)
T6 construct: purchased Eurofins Cerep (SafetyScreen44), recognised from the panel format
Assay: In vitro CEREP profiling, Lck kinase (h)
Assay type: biochemical
Details: test compound concentration 10 uM; Enzyme and Cell-based assays
Description: as §1

T6 sequence (P06239 whole entry): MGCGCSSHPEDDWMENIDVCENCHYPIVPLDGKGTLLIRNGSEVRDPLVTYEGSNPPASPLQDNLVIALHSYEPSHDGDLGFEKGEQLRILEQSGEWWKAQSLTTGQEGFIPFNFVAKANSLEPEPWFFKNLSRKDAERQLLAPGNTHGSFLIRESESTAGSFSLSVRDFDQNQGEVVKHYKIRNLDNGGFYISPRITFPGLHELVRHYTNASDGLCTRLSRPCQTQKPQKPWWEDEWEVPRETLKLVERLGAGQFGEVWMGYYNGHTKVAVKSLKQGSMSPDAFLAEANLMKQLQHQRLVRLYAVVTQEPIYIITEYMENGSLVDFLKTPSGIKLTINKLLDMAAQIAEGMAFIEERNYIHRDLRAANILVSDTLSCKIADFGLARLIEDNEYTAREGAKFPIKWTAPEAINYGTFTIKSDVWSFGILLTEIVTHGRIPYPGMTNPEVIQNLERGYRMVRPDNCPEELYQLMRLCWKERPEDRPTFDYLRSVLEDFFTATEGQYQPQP

SMILES	perc_inhibition: % inhibition of control enzyme activity, Lck kinase (h) [%]
C[C@H](C(=O)O)[C@@H](NC(=O)c1ncnc2[nH]ccc12)c1ccc(Br)cc1 [ASAP-0014722]	4

Test system: Ca2+ channel (L, dihydropyridine site)
Assay: In vitro CEREP profiling, Ca2+ channel (L, dihydropyridine site) (antagonist radioligand)
Assay type: binding
Details: test compound concentration 10 uM
Description: as §1

SMILES	perc_inhibition (% inhibition of the binding of a ligand specific for each target) [%]
C[C@H](C(=O)O)[C@@H](NC(=O)c1ncnc2[nH]ccc12)c1ccc(Br)cc1 [ASAP-0014722]	-12

Target: T7, Potassium Channel hERG (human) (Homo sapiens, UniProt Q12809)
T7 construct: purchased Eurofins Cerep (SafetyScreen44), recognised from the panel format
Assay: In vitro CEREP profiling, Potassium Channel hERG (human)- [3H] Dofetilide
Assay type: binding
Details: test compound concentration 10 uM
Description: as §1

T7 sequence (Q12809 whole entry): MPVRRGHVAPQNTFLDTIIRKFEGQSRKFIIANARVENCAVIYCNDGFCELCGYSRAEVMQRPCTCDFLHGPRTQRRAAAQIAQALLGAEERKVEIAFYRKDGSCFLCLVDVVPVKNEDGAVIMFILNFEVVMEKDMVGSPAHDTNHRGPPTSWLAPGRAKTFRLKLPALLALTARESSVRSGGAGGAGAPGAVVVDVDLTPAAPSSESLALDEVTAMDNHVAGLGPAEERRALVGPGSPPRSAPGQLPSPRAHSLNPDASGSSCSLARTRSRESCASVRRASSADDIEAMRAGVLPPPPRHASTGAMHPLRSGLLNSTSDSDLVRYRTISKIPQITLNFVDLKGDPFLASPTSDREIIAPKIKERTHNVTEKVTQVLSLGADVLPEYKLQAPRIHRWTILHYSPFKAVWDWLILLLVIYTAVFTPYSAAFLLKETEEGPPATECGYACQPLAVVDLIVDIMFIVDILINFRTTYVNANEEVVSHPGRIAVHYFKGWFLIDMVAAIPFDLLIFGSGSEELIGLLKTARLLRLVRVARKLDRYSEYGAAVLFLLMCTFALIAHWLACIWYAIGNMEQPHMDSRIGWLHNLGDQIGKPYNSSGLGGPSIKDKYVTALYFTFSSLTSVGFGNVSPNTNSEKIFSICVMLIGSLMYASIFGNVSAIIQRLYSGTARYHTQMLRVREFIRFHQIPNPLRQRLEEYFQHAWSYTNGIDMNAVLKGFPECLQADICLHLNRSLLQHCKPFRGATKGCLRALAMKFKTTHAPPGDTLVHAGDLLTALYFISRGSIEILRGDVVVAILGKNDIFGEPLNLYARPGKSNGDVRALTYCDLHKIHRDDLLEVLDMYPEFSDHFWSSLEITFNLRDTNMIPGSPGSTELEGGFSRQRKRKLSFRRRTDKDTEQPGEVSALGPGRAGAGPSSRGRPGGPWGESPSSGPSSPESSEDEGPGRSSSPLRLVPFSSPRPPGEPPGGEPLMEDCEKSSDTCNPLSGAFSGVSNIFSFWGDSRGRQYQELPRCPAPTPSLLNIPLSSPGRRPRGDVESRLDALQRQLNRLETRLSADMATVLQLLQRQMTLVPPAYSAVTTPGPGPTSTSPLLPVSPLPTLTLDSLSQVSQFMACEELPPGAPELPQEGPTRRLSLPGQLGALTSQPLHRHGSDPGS

SMILES	perc_inhibition (% inhibition of the binding of a ligand specific for each target) [%]
C[C@H](C(=O)O)[C@@H](NC(=O)c1ncnc2[nH]ccc12)c1ccc(Br)cc1 [ASAP-0014722]	14

Target: hERG (Homo sapiens, UniProt Q12809)
Assay: In vitro hERG cardiotoxocity
Details: at top test concentration 30 uM
Description: Supplement media-1.zip/Cardiotoxicity.csv, table | column: ic50; perc_inhibition_top_conc

hERG, sequence (Q12809 whole entry): as above

SMILES	perc_inhibition_top_conc [%]
C[C@H](C(=O)O)[C@@H](NC(=O)c1ncnc2[nH]ccc12)c1ccc(Br)cc1 [ASAP-0014722]	28.0

Same assay, conditions: top test concentration 30 uM

SMILES	IC50 [µM]
C[C@H](C(=O)O)[C@@H](NC(=O)c1ncnc2[nH]ccc12)c1ccc(Br)cc1 [ASAP-0014722]	> 30

Test system: KV channel
Assay: In vitro CEREP profiling, KV channel (antagonist radioligand)
Assay type: binding
Details: test compound concentration 10 uM
Description: as §1

SMILES	perc_inhibition (% inhibition of the binding of a ligand specific for each target) [%]
C[C@H](C(=O)O)[C@@H](NC(=O)c1ncnc2[nH]ccc12)c1ccc(Br)cc1 [ASAP-0014722]	0

Test system: Na+ channel (site 2)
Assay: In vitro CEREP profiling, Na+ channel (site 2) (antagonist radioligand)
Assay type: binding
Details: test compound concentration 10 uM
Description: as §1

SMILES	perc_inhibition (% inhibition of the binding of a ligand specific for each target) [%]
C[C@H](C(=O)O)[C@@H](NC(=O)c1ncnc2[nH]ccc12)c1ccc(Br)cc1 [ASAP-0014722]	6

Test system: MERS-CoV
Assay: microbe, parasite or virus in culture
Assay type: cell-based
Details: Vero E6/TMPRSS2 MERS-CoV antiviral effect with P-gp inhibitor; maximum measured response of dose series

SMILES	perc_max_measured
C[C@H](C(=O)O)[C@@H](NC(=O)c1ncnc2[nH]ccc12)c1ccc(Br)cc1 [ASAP-0014722]	106.305% and 132.117%

Same assay, conditions: Vero E6/TMPRSS2 MERS-CoV antiviral effect with P-gp inhibitor; minimum measured response of dose series

SMILES	perc_min_measured
C[C@H](C(=O)O)[C@@H](NC(=O)c1ncnc2[nH]ccc12)c1ccc(Br)cc1 [ASAP-0014722]	63.318% and 92.538%

Same assay, conditions: Vero E6/TMPRSS2 MERS-CoV antiviral effect with P-gp inhibitor; read-out: ec50

SMILES	EC50 [µM]
C[C@H](C(=O)O)[C@@H](NC(=O)c1ncnc2[nH]ccc12)c1ccc(Br)cc1 [ASAP-0014722]	> 5

Same assay, conditions: Vero E6/TMPRSS2 MERS-CoV antiviral effect with P-gp inhibitor; read-out: ec90

SMILES	EC90 [µM]
C[C@H](C(=O)O)[C@@H](NC(=O)c1ncnc2[nH]ccc12)c1ccc(Br)cc1 [ASAP-0014722]	> 5
